# According to the supplement of paper PMC11208160:
# Test: recombinant barcode read abundance after kanamycin selection (control-corrected) (log10(CPM+1)); higher = more efficient recombination; sequences stand for … in AGTGCAGAGAAAATCGGCCAGTTTTCTCTGCCTGCAGTCCGCATGCCGT…ATTTATGCAGCGGACTGCCTTTCTCCCAAAGTGATAAACCGGACAGTATCATGGACCGGTTTTCCCGGTAATCCGTATTTGCAAGGTTGGTTTCACT; site = the 11-nt target
# Outline: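 Values are log10(CPM+1) from a pooled E. coli screen of targets paired with IS621 bridge RNA target-binding loops. Recombination efficiency here means counts per million of recombinant-junction barcodes, averaged and control-corrected. Plates were chloramphenicol/ampicillin LB agar for the control and chloramphenicol/ampicillin/kanamycin with 0.1 mM IPTG, two replicates each.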
row,Sequence,recombinant barcode read abundance (log10)
1,"CATATTACTTGGGTTCTAACCTGTTGCCTAC [CATATTACTAG_LTGcore_CT_RTGcore_GT] (site CATATTACTAG) (LTG core: CT, RTG core: GT)",1.01
2,"CATATTAGATGGGTTCTAACCTGTTGCCTTC [CATATTACTAG_LTGcore_GA_RTGcore_GA] (site CATATTACTAG) (LTG core: GA, RTG core: GA)",0.0675
3,"CATATTAGCTGGGTTCTAACCTGTTGCCTAG [CATATTACTAG_LTGcore_GC_RTGcore_CT] (site CATATTACTAG) (LTG core: GC, RTG core: CT)",0.73
4,"CATATTAGGTGGGTTCTAACCTGTTGCCTAG [CATATTACTAG_LTGcore_GG_RTGcore_CT] (site CATATTACTAG) (LTG core: GG, RTG core: CT)",0.182
5,"CATATTATATGGGTTCTAACCTGTTGCCTTA [CATATTACTAG_LTGcore_TA_RTGcore_TA] (site CATATTACTAG) (LTG core: TA, RTG core: TA)",0.00689
6,"CGAGCCCACTGGGTTCTAACCTGTTGCTGGT [CGAGCCCCTCA_LTGcore_AC_RTGcore_AC] (site CGAGCCCCTCA) (LTG core: AC, RTG core: AC)",0.0238
7,"CGAGCCCCGTGGGTTCTAACCTGTTGCTGAG [CGAGCCCCTCA_LTGcore_CG_RTGcore_CT] (site CGAGCCCCTCA) (LTG core: CG, RTG core: CT)",0.587
8,"CGAGCCCCTTGGGTTCTAACCTGTTGCTGAC [CGAGCCCCTCA_LTGcore_CT_RTGcore_GT] (site CGAGCCCCTCA) (LTG core: CT, RTG core: GT)",0.19
9,"CGAGCCCCTTGGGTTCTAACCTGTTGCTGCA [CGAGCCCCTCA_LTGcore_CT_RTGcore_TG] (site CGAGCCCCTCA) (LTG core: CT, RTG core: TG)",0.0283
10,"CGAGCCCCTTGGGTTCTAACCTGTTGCTGGC [CGAGCCCCTCA_LTGcore_CT_RTGcore_GC] (site CGAGCCCCTCA) (LTG core: CT, RTG core: GC)",0.405
11,"CGAGCCCGCTGGGTTCTAACCTGTTGCTGAG [CGAGCCCCTCA_LTGcore_GC_RTGcore_CT] (site CGAGCCCCTCA) (LTG core: GC, RTG core: CT)",0.195
12,"CGAGCCCGCTGGGTTCTAACCTGTTGCTGGC [CGAGCCCCTCA_LTGcore_GC_RTGcore_GC] (site CGAGCCCCTCA) (LTG core: GC, RTG core: GC)",0.0793
13,"CGAGCCCGTTGGGTTCTAACCTGTTGCTGAG [CGAGCCCCTCA_LTGcore_GT_RTGcore_CT] (site CGAGCCCCTCA) (LTG core: GT, RTG core: CT)",0.102
14,"CGCGCCCAATGGGTTCTAACCTGTTGCGGTT [CGCGCCCCTCC_LTGcore_AA_RTGcore_AA] (site CGCGCCCCTCC) (LTG core: AA, RTG core: AA)",0.134
15,"CGCGCCCACTGGGTTCTAACCTGTTGCGGAG [CGCGCCCCTCC_LTGcore_AC_RTGcore_CT] (site CGCGCCCCTCC) (LTG core: AC, RTG core: CT)",0.0345
16,"CGCGCCCACTGGGTTCTAACCTGTTGCGGGT [CGCGCCCCTCC_LTGcore_AC_RTGcore_AC] (site CGCGCCCCTCC) (LTG core: AC, RTG core: AC)",0.0786
17,"CGCGCCCCCTGGGTTCTAACCTGTTGCGGAG [CGCGCCCCTCC_LTGcore_CC_RTGcore_CT] (site CGCGCCCCTCC) (LTG core: CC, RTG core: CT)",0.158
18,"CGCGCCCCTTGGGTTCTAACCTGTTGCGGAC [CGCGCCCCTCC_LTGcore_CT_RTGcore_GT] (site CGCGCCCCTCC) (LTG core: CT, RTG core: GT)",0.0615
19,"CGCGCCCCTTGGGTTCTAACCTGTTGCGGAT [CGCGCCCCTCC_LTGcore_CT_RTGcore_AT] (site CGCGCCCCTCC) (LTG core: CT, RTG core: AT)",0.243
20,"CGCGCCCCTTGGGTTCTAACCTGTTGCGGCG [CGCGCCCCTCC_LTGcore_CT_RTGcore_CG] (site CGCGCCCCTCC) (LTG core: CT, RTG core: CG)",0.0742
21,"CGCGCCCCTTGGGTTCTAACCTGTTGCGGGT [CGCGCCCCTCC_LTGcore_CT_RTGcore_AC] (site CGCGCCCCTCC) (LTG core: CT, RTG core: AC)",0.266
22,"CGCGCCCCTTGGGTTCTAACCTGTTGCGGTT [CGCGCCCCTCC_LTGcore_CT_RTGcore_AA] (site CGCGCCCCTCC) (LTG core: CT, RTG core: AA)",0.146
23,"CGCGCCCGATGGGTTCTAACCTGTTGCGGAG [CGCGCCCCTCC_LTGcore_GA_RTGcore_CT] (site CGCGCCCCTCC) (LTG core: GA, RTG core: CT)",0.217

row,Sequence,recombinant barcode read abundance (log10)
1,"CGCGCCCGCTGGGTTCTAACCTGTTGCGGGC [CGCGCCCCTCC_LTGcore_GC_RTGcore_GC] (site CGCGCCCCTCC) (LTG core: GC, RTG core: GC)",0.552
2,"CGCGCCCGTTGGGTTCTAACCTGTTGCGGAG [CGCGCCCCTCC_LTGcore_GT_RTGcore_CT] (site CGCGCCCCTCC) (LTG core: GT, RTG core: CT)",0.062
3,"CGGTCCCCATGGGTTCTAACCTGTTGCCATG [CGGTCCCCTTG_LTGcore_CA_RTGcore_CA] (site CGGTCCCCTTG) (LTG core: CA, RTG core: CA)",0.185
4,"CGGTCCCCGTGGGTTCTAACCTGTTGCCACG [CGGTCCCCTTG_LTGcore_CG_RTGcore_CG] (site CGGTCCCCTTG) (LTG core: CG, RTG core: CG)",0.342
5,"CGGTCCCCTTGGGTTCTAACCTGTTGCCAAA [CGGTCCCCTTG_LTGcore_CT_RTGcore_TT] (site CGGTCCCCTTG) (LTG core: CT, RTG core: TT)",0.0341
6,"CGGTCCCCTTGGGTTCTAACCTGTTGCCAAG [CGGTCCCCTTG_LTGcore_CT_RTGcore_CT] (site CGGTCCCCTTG) (LTG core: CT, RTG core: CT)",1.32
7,"CGGTCCCCTTGGGTTCTAACCTGTTGCCACA [CGGTCCCCTTG_LTGcore_CT_RTGcore_TG] (site CGGTCCCCTTG) (LTG core: CT, RTG core: TG)",0.0539
8,"CGGTCCCCTTGGGTTCTAACCTGTTGCCACG [CGGTCCCCTTG_LTGcore_CT_RTGcore_CG] (site CGGTCCCCTTG) (LTG core: CT, RTG core: CG)",0.0795
9,"CGGTCCCCTTGGGTTCTAACCTGTTGCCAGC [CGGTCCCCTTG_LTGcore_CT_RTGcore_GC] (site CGGTCCCCTTG) (LTG core: CT, RTG core: GC)",0.178
10,"CGGTCCCCTTGGGTTCTAACCTGTTGCCATA [CGGTCCCCTTG_LTGcore_CT_RTGcore_TA] (site CGGTCCCCTTG) (LTG core: CT, RTG core: TA)",0.222
11,"CGGTCCCCTTGGGTTCTAACCTGTTGCCATC [CGGTCCCCTTG_LTGcore_CT_RTGcore_GA] (site CGGTCCCCTTG) (LTG core: CT, RTG core: GA)",0.208
12,"CGGTCCCCTTGGGTTCTAACCTGTTGCCATT [CGGTCCCCTTG_LTGcore_CT_RTGcore_AA] (site CGGTCCCCTTG) (LTG core: CT, RTG core: AA)",0.369
13,"GAGCCCAACTGGGTTCTAACCTGTTGCCTGT [GAGCCCACTAG_LTGcore_AC_RTGcore_AC] (site GAGCCCACTAG) (LTG core: AC, RTG core: AC)",0.199
14,"GAGCCCAATTGGGTTCTAACCTGTTGCCTAT [GAGCCCACTAG_LTGcore_AT_RTGcore_AT] (site GAGCCCACTAG) (LTG core: AT, RTG core: AT)",0.154
15,"GAGCCCACCTGGGTTCTAACCTGTTGCCTGG [GAGCCCACTAG_LTGcore_CC_RTGcore_CC] (site GAGCCCACTAG) (LTG core: CC, RTG core: CC)",0.0451
16,"GAGCCCACGTGGGTTCTAACCTGTTGCCTAG [GAGCCCACTAG_LTGcore_CG_RTGcore_CT] (site GAGCCCACTAG) (LTG core: CG, RTG core: CT)",0.2
17,"GAGCCCATCTGGGTTCTAACCTGTTGCCTGA [GAGCCCACTAG_LTGcore_TC_RTGcore_TC] (site GAGCCCACTAG) (LTG core: TC, RTG core: TC)",0.0397
18,"GAGGCCTCATGGGTTCTAACCTGTTGCCATG [GAGGCCTCTTG_LTGcore_CA_RTGcore_CA] (site GAGGCCTCTTG) (LTG core: CA, RTG core: CA)",0.0323
19,"GAGGCCTCCTGGGTTCTAACCTGTTGCCAAG [GAGGCCTCTTG_LTGcore_CC_RTGcore_CT] (site GAGGCCTCTTG) (LTG core: CC, RTG core: CT)",0.273
20,"GAGGCCTCGTGGGTTCTAACCTGTTGCCACG [GAGGCCTCTTG_LTGcore_CG_RTGcore_CG] (site GAGGCCTCTTG) (LTG core: CG, RTG core: CG)",0.169
21,"GAGGCCTCTTGGGTTCTAACCTGTTGCCAGC [GAGGCCTCTTG_LTGcore_CT_RTGcore_GC] (site GAGGCCTCTTG) (LTG core: CT, RTG core: GC)",0.285
22,"GAGGCCTGATGGGTTCTAACCTGTTGCCATC [GAGGCCTCTTG_LTGcore_GA_RTGcore_GA] (site GAGGCCTCTTG) (LTG core: GA, RTG core: GA)",0.231
